What is called MIC is the lowest concentration found to suppress growth. The low end stands for inhibition by little substance, the high end for a need for much substance.

≈ marks a conversion by molar mass, not a printed value. A value given as a limit tells only on which side of the number the result lay.

The results in this text go back to ChEMBL document CHEMBL2390897, “3-Anhydro-6-hydroxy-ophiobolin A, a new sesterterpene inhibiting the growth of methicillin-resistant Staphylococcus aureus and inducing the cell death by apoptosis on K562, from the phytopathogenic fungus Bipolaris oryzae” (Bioorg Med Chem Lett, 2013).

The subject of the test is Mycobacterium tuberculosis. As to the kind of experiment: Antimicrobial activity against Bacille Calmette-Guerin. Particulars: variant bovis BCG. It counts as functional.
`CC(C)=C[C@H]1C[C@H](C)[C@]2(CC[C@]3(C)C[C@@H]4C(C)=CC(=O)[C@H]4/C(C=O)=C\C[C@H]32)O1` [3-ANHYDRO-6-EPI-OPHIOBOLIN A] yielded an MIC greater than 100 µg/mL.
The value for `CC(C)=C[C@H]1C[C@H](C)[C@]2(CC[C@]3(C)C[C@@H]4C(C)=CC(=O)[C@@H]4/C(C=O)=C\C[C@H]32)O1` was greater than 100 µg/mL; that for `NNC(=O)c1ccncc1` [ISONIAZID] was 0.05 µg/mL (≈ 0.365 µM); that for `CC(C)=C[C@H]1C[C@H](C)[C@]2(CC[C@]3(C)C[C@@H]4C(C)=CC(=O)[C@]4(O)/C(C=O)=C\C[C@H]32)O1` was 12.5 µg/mL (≈ 31.4 µM).
